According to patent publication US9783510B2, “Small molecule mediated transcriptional induction of E-cadherin” (Vanderbilt University, priority 2014, dated 2017):

Experiments:
[1] = tested on: E-cadherin expression in H520 cells; assay: E-cadherin expression, in-cell Western (ICW), H520 cells; type: cell-based; details: Homo sapiens, NCI-H520; for fold induction at 10 µM: change in expression level of E-cadherin in response to 10 μM compound, 24 hours, H520 cells; for EC50: inducement of E-cadherin expression in H520 cells
Protocol: SW620 and H520 cells (5×10^4/100 μL) were seeded in a 96-well plate prior to treatment. Cells were treated with 10 μM concentration of synthesized compound in quadruplicate for 24 hours in RPMI 1640 supplemented medium and 100 μg/mL penicillin-streptomycin. The cells were then fixed with 100% methanol for 20 minutes at 4° C. The wells were then washed 2 times with PBS, permeabilized in 2% bovine serum albumin (BSA) and 0.2% TritonX-100 in PBS for 30 minutes at room temperature with gentle agitation, and blocked in LI-COR blocking buffer for 30 minutes at room temperature with gentle agitation. The cells were then incubated with the following primary antibodies: anti-E-Cadherin (1:500) and anti-α-Tubulin (1:1000) diluted in blocking buffer (1:1 dilution in PBS) for 2 hours at room temperature with gentle agitation. The cells were washed 4 times in PBS-T for 5 minutes each, and then incubated with the following secondary antibodies conjugated to a fluorescent entity: IRDye 800-conjugated goat anti-rabbit IgG (1:1000) and IRDye-700-conjugated goat anti-mouse IgG (1:2000) in blocking buffer (1:1 dilution in PBS) with gentle agitation for 1 h at room temperature. The cells were washed 4 times in PBS-T for 5 minutes each followed by a single wash with PBS. All liquid was removed from the wells and the plates were visualized and analyzed on the Odyssey IR imaging system (LI-COR Biosciences).
The assay was further optimized in the following manner. The cells were washed 2 times with PBS, fixed in 100% methanol at room temperature for 15 minutes, and again washed 2 times with PBS. The cells were then incubated with the following primary antibodies: anti-E-Cadherin (1:200) and anti-α-Tubulin (1:2000) diluted in ice cold 2% bovine serum albumin (BSA) and 0.2% TritonX-100 in PBS for 1 hour at room temperature with gentle agitation. The cells were washed 2 times in PBS and then incubated with the following secondary antibodies conjugated to a fluorescent entity: Licor 800-conjugated goat anti-rabbit IgG (1:2000) and IRDye-700-conjugated goat anti-mouse IgG (1:2000) in ice cold 2% BSA and 0.2% TritonX-100 in PBS with gentle agitation for 45 minutes at room temperature. The wells were washed 2 times in PBS, dried, and analyzed as previously mentioned.
Changes in expression level of E-cadherin in response to 10 μM compound in H520 cells was determined in a cell-based functional assay as described above, and the data are shown in Table IV. The compound number corresponds to the compound numbers used in Table II.
EC50 of inducement of E-cadherin expression in H520 cells was determined in a cell-based functional assay as described above, and the data are shown in Table VI. The compound number corresponds to the compound numbers used in Table II.

[2] = tested on: E-cadherin expression in SW620 cells; assay: E-cadherin expression, in-cell Western (ICW), SW620 cells; type: cell-based; details: Homo sapiens; for fold induction at 10 µM: SW-620, 24 h, change in expression level of E-cadherin in response to 10 μM compound, 24 hours, SW620 cells; for EC50: SW-620, inducement of E-cadherin expression in SW620 cells
How it was run: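 SW620 cells were treated with compound for 24 h in RPMI 1640 (single-point at 10 μM; EC50 also determined), in quadruplicate. After methanol fixation, in-cell Western with anti-E-cadherin and anti-α-tubulin primaries and IRDye 800/700 secondaries. Read on an Odyssey IR imager.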

[3] = tested on: proximal region of the E-cadherin promoter (Cdh1) in SW620inv cells; assay: ChIP assay at proximal E-cadherin promoter, SW620inv cells; type: cell-based; details: ChIP (FIG. 8)
[4] = tested on: HMEC-1 cells; assay: E-cadherin, VE-cadherin, Vimentin and histone marks in HMEC-1 cells (qPCR, Western blot); type: cell-based, human; details: after 48 hours of treatment
[5] = tested on: E-cadherin, H3K9Ac, H3K4me3, H3K27me3, H3K4me2 in SW620inv cells; assay: Western blot time course of E-cadherin and histone H3 marks, SW620inv cells; type: cell-based
[6] = tested on: cyclin D1 protein; assay: Cyclin D1 protein by ICW (control for cycloheximide); type: cell-based; details: within the 7 hour experimental interval
Protocol: Compound 13 increased the mRNA levels of E-cadherin specific mRNA by 27-fold in SW620inv cells (FIG. 3B) and by 20-fold in H520 cells (FIG. 3C) by 6 hours post-treatment. […] Whether de novo protein synthesis was required for the effect of Compound 13 on E-cadherin mRNA expression was determined. For these experiments, cells were treated with cycloheximide prior to application of Compound 13 and the expression of E-cadherin mRNA was evaluated 6 hours post-treatment for best sensitivity. The levels of cyclin D1 protein, known to have a very short half-life of ˜20 minutes (Diehl, J. A., et al. (1998) Genes & Development 12, 3499-3511), were analyzed as a positive control for the effectiveness of cycloheximide (CHX) treatment.
Referring to FIG. 4B and FIG. 4C, quantification of cyclin D1 protein by ICW, as described above, and under similar conditions as in (4A) at 6 h post-treatment with or without cyclohexamide.

| SMILES | fold induction at 10 µM [1] | fold induction at 10 µM [2] | EC50 [1] | EC50 [2] | also measured |
| --- | --- | --- | --- | --- | --- |
| O=C(NCCNC(=O)c1cc(-c2ccccc2)[nH]n1)c1ccncc1 [Compound 124, N-(2-(5-phenyl-1H-pyrazole-3-carboxamido)ethyl)isonicotinamide] | 1.22 | 1.29 |  |  | Pol II association with the E-cadherin proximal promoter [3]: did not show any effect |
| Nc1ncn([C@@H]2O[C@H](CO)[C@@H](O)[C@H]2O)c(=O)n1 [Compound 5-Aza, 5-azacytidine] |  |  |  |  | restoring E-cadherin in HMEC-1 cells [4]: neither TSA nor 5-Aza, nor the combination of these two agents, was effective |
| CC(/C=C/C(=O)NO)=C\[C@@H](C)C(=O)c1ccc(N(C)C)cc1 [TSA, trichostatin A] |  |  |  |  | modification of the repressive marker H3K27me3 [5]: Less overall modification; time of peak of H3K9Ac and H3K4me3 levels ([5]; 0.33 μM TSA): 6 h; time at which increase in H3K9Ac and H3K4me3 levels is first observed ([5]; 10 μM Compound 13, 0.33 μM TSA): 1 h; restoring E-cadherin in HMEC-1 cells [4]: neither TSA nor 5-Aza, nor the combination of these two agents, was effective |
| O=C(NCCCNC(=O)c1cc(F)ccc1O)c1cc(-c2ccccc2)on1 [Compound 20, N-(3-(5-fluoro-2-hydroxybenzamido)propyl)-5-phenylisoxazole-3-carboxamide] | 5.27 | 2.43 | 1.4 µM | 5 µM |  |
| C[C@@H]1C[C@@H]([C@H](O)CC2CC(=O)NC(=O)C2)C(=O)[C@@H](C)C1 [cycloheximide] |  |  |  |  | cyclin D1 levels [6]: markedly reduced; β-actin protein levels [6]: not significantly altered |
| O=C(Cc1ccccc1O)NCCCNC(=O)c1cc(-c2ccccc2)on1 [Compound 21, N-(3-(2-(2-hydroxyphenyl)acetamido)propyl)-5-phenylisoxazole-3-carboxamide] | 5.92 | 4.92 | 1.5 µM | 4.97 µM |  |
| O=C(Cc1ccccc1O)NCCNC(=O)c1cc(-c2ccccc2)on1 [Compound 1, N-(2-(2-(2-hydroxyphenyl)acetamido)ethyl)-5-phenylisoxazole-3-carboxamide] | 3.51 | 3.4 | 5.6 µM | 3.7 µM |  |
| O=C(NCCNC(=O)c1cc(F)ccc1O)c1cc(-c2ccccc2)[nH]n1 [Compound 122, N-(2-(5-fluoro-2-hydroxybenzamido)ethyl)-5-phenyl-1H-pyrazole-3-carboxamide] | 1.04 | 1.45 |  |  |  |
